Measured values reported in patent US7230027B2, “Anti-first-pass effect compounds” (Bioavailability Systems, L.L.C., priority 1997, dated 2007).
Read-outs that look alike come from different tables or passages of the source.

Experiments:
Human Cytochrome P450 [1] = assay: Protocol C: human cytochrome P450-mediated biotransformation of terfenadine in human hepatic S9; assay type: biochemical
Description: Protocol C: Assessment of Human Cytochrome P450-Mediated Biotransformation
The process of preparing incubation mixtures begins by mixing 10 uL of ethanol or an ethanolic solution containing an inhibitor with 100 uL of 100 mg/mL bovine serum albumin (Sigma) dissolved in reaction buffer at room temperature. Reaction buffer is composed of 0.10 M sodium phosphate, 1.0 mM ethylenediaminetetraacetic acid, and 5.0 mM magnesium chloride, pH 7.4 (all reagents: Fisher Scientific). Inhibitory chemicals used were ketoconazole (Research Diagnostics, Inc.), miconazole, bergapten, xanthotoxin (previous three from Sigma), bergamotin, imperatorin, isopimpinellin, psoralen, angelicin (previous five from Indofine Chemical Company, Inc.), and fractions or precipitates resulting from Protocols A, A′, B, B′, or B″ above. When possible, final inhibitor concentrations were expressed in molarity by calculation from the weighed material or by interpolation from HPLC calibration curves prepared with reference materials; otherwise, concentrations are expressed as weight per volume. Reaction tubes are placed on ice in preparation for the manipulations that follow. Sufficient reaction buffer is added so that the final volume of each tube will be 500 uL, 5 uL of a 100-fold concentrate for generating reduced nicotinamide adenine dinucleotide phosphate is added (such that completed reaction mixture contains 1.0 mM nicotinamide adenine dinucleotide phosphate, 1 U/mL glucose-6-phosphate dehydrogenase, and 10 mM glucose-6-phosphate; all from Sigma), and then human hepatic S9 (Anatomic Gift Foundation) is thawed and added in sufficient amounts to cause readily detectable amounts of metabolites to be formed in control reactions (amount necessary varies among individuals, but 10 uL is typical).
The samples prepared above are readied for HPLC assessment using the protocol that follows. Each tube is vortex mixed and centrifuged for 10 min at setting 35, the resulting supernatant is transferred to a clean tube, and the liquid is evaporated using a Speed Vac apparatus. The residue in each tube is first dissolved in 40 uL 1:1 acetonitrile:water, 2.5 mL of acetonitrile is added, and the centrifuge-transfer-evaporate step just described is repeated.
Linear gradients are used for elution and are formed by mixing mobile phase A composed of water with mobile phase B composed of 0.025% (v/v) formic acid in acetonitrile (instrument: Hewlett Packard). The elution time, in minutes, the percentage of mobile phase B present in the mixed mobile phase, and the flow rate (mL/min) are as follows: 0, 10, 0.10; 2, 10, 0.10; 3.5, 10, 0.20; 4, 10, 0.25; 5, 10, 0.25; 30, 55, 0.25; 32, 98, 0.25; 33, 98, 0.40; 39.8, 98, 0.40; 40, 98, 0.25; 45, 10, 0.25; 45.25, 10, 0.20; 50, 10, 0.20; 50.25, 10, 0.10. The chromatographic column has dimensions of 150 mm length×2.1 mm internal diameter, is packed with a proprietary material (Prism, Keystone Scientific, Inc.), is protected with a 2 mm internal diameter column containing the same material and with a PTFE filter, and is maintained at 35+/−0.2° C. The dry sample residue is mixed with 60 uL of 1:1 acetonitrile:water followed by 40 uL water just prior to each 50.25 min run cycle. The column eluate from each 10 uL injection is monitored for fluorescence with excitation at 228 nm, emission at 291 nm, and bandpass filtration at 280 nm.

Human Cytochrome P450 [2] = assay: Protocol C′: human cytochrome P450-mediated biotransformation of saquinavir in human hepatic S9; assay type: biochemical
Description: Protocol C′: Assessment of Human Cytochrome P450-Mediated Biotransformation
The process of preparing incubation mixtures begins by mixing 10 uL of ethanol (control reactions) or an ethanolic solution containing an inhibitor with 100 uL of 100 mg/mL bovine serum albumin (Sigma) dissolved in reaction buffer at room temperature. Reaction buffer is composed of 0.10 M sodium phosphate, 1.0 mM ethylenediaminetetraacetic acid, and 5.0 mM magnesium chloride, pH 7.4 (all reagents: Fisher Scientific). […] Sufficient reaction buffer is added so that the final volume of each tube will be 500 uL, 5 uL of a 100-fold concentrate for generating reduced nicotinamide adenine dinucleotide phosphate is added (such that completed reaction mixture contains 1.0 mM nicotinamide adenine dinucleotide phosphate, 1 U/mL glucose-6-phosphate dehydrogenase, and 10 mM glucose-6-phosphate; all from Sigma), and then human hepatic S9 (Anatomic Gift Foundation) is thawed and added in sufficient amounts to cause readily detectable amounts of metabolites to be formed in control reactions (amount necessary varies among individuals, but 10 uL is typical). […]
The samples prepared above are readied for HPLC assessment using the protocol that follows. […]

[3] = heart transplant patients, cyclosporin co-administered with ketoconazole; cited from earlier work
[4] = oral tablet; cited from earlier work
[5] = protocol not given, Protocol C or C′

| SMILES | first-pass effect inhibition, determined herein (Human Cytochrome P450 [1]) | first-pass effect inhibition, determined herein (Human Cytochrome P450 [1]; [5]) | also measured |
| --- | --- | --- | --- |
| CC(=CCOc1c2ccoc2cc2oc(=O)ccc12)CCC(O)C(C)(C)O (centres unmarked) [6′,7′-dihydroxybergamottin] | ineffective | – | – |
| O=c1ccc2ccc3occc3c2o1 [angelicin] | – | ineffective | – |
| CC(C)=CCC/C(C)=C/COc1c2ccoc2cc2oc(=O)ccc12 [bergamottin] | ineffective | – | first-pass inhibition (generation of saquinavir metabolites in presence of inhibitor) (Human Cytochrome P450 [2]): essentially ineffective |
| CC(C)=CCOc1c2occc2cc2ccc(=O)oc12 [imperatorin] | – | ineffective | first-pass inhibition (generation of saquinavir metabolites in presence of inhibitor) (Human Cytochrome P450 [2]; Protocol C′, human hepatic S9, FIG. 1): essentially ineffective |
| CC(=O)N1CCN(c2ccc(OCC3COC(Cn4ccnc4)(c4ccc(Cl)cc4Cl)O3)cc2)CC1 (centres unmarked) [ketoconazole] | – | – | reduction of the dose of cyclosporin required [3]: approximately 85% |
| O=c1ccc2cc3ccoc3cc2o1 [psoralen] | – | ineffective | – |
| CC(C)(C)c1ccc(C(O)CCCN2CCC(C(O)(c3ccccc3)c3ccccc3)CC2)cc1 (centres unmarked) [terfenadine] | – | – | part of a tablet given by mouth quickly changed to metabolites [4]: 99.5% |

More lines, main results first:

| first-pass effect inhibition, determined herein (Human Cytochrome P450 [1]) | SMILES | first-pass effect inhibition, determined herein (Human Cytochrome P450 [1]; [5]) | also measured |
| --- | --- | --- | --- |
| ineffective | COc1c2ccoc2c(OC)c2oc(=O)ccc12 [isopimpinellin] | – | – |
| ineffective | C/C(=C\COc1ccc2ccc(=O)oc2c1)CC[C@@H](O)C(C)(C)O [marmin] | – | – |
